Measurements reported in patent publication US8859575B2, “Benzoimidazol-2-yl pyrimidine modulators of the histamine h4 receptor” (Janssen Pharmaceutica NV, priority 2013, dated 2014).
“Also recorded” adds a separate entry of the source.

Assays:
H4 receptor = H4 receptor (Homo sapiens, UniProt Q9H3N8); details: as described in U.S. Pat. No. 7,507,737, 8,343,989 and others; cited from earlier work
[1] = Aqueous solubility at room temperature; type: physicochemical
[2] = Hygroscopicity and physical (solid form) stability; type: physicochemical; details: for conversion to another solid form: aqueous solution, atmosphere, dehydration or recrystallization; for physical stability: ambient conditions

| aqueous solubility [1] | hygroscopicity [2] | relative humidity above which it converts to Compound 3 [2] | SMILES | H4 receptor modulator activity (H4 receptor) | conversion to another solid form [2] | physical stability [2] |
| --- | --- | --- | --- | --- | --- | --- |
|  |  |  | Cc1cc(C)c2nc(-c3cnc(NCCCC4CCN(C)CC4)nc3C)[nH]c2c1 [Compound 2, [5-(4,6-Dimethyl-1H-benzoimidazol-2-yl)-4-methyl-pyrimidin-2-yl]-[3-(1-methyl-piperidin-4-yl)-propyl]-amine] | has H4 receptor modulator activity |  |  |
| about 1.1 g/ml | hygroscopic | above 70 % relative humidity | Cc1cc(C)c2nc(-c3cnc(NCCCC4CCN(C)CC4)nc3C)[nH]c2c1.O=C(O)C(O)C(O)C(=O)O [Compound 2.1, 5-(4,6-dimethyl-1H-benzimidazol-2-yl)-4-methyl-N-[3-(1-methyl-4-piperidinyl)-propyl]-2-pyrimidinamine 2,3-dihydroxybutanedioate (1:0.5)] |  | forms the tetrahydrate Compound 3 in aqueous solution |  |
|  | absorbs water readily |  | Cc1cc(C)c2nc(-c3cnc(NCCCC4CCN(C)CC4)nc3C)[nH]c2c1 [Compound 2.2, 5-(4,6-dimethyl-1H-benzimidazol-2-yl)-4-methyl-N-[3-(1-methyl-4-piperidinyl)-propyl]-2-pyrimidinamine 2,3-dihydroxybutanedioate (1:0.5)] |  | converts to Compound 3 when exposed to the atmosphere | physically stable only when stored in a tightly sealed vial at ambient condition |
| about 4.1 mg/ml |  |  | Cc1cc(C)c2nc(-c3cnc(NCCCC4CCN(C)CC4)nc3C)[nH]c2c1.O=C(O)C(O)C(O)C(=O)O [Compound 3, 5-(4,6-dimethyl-1H-benzimidazol-2-yl)-4-methyl-N-[3-(1-methyl-4-piperidinyl)-propyl]-2-pyrimidinamine 2,3-dihydroxybutanedioate tetrahydrate (1:0.5:4)] |  | converts to Compound 2.2 upon dehydration by heating or in low relative humidity; also recorded: no conversion of Compound 3 to other forms was detected | stable under ambient conditions |
